The values below come from US20260007681A1, “INDOLE DERIVATIVES AS ESTROGEN RECEPTOR DEGRADERS” (REGENTS OF THE UNIVERSITY OF MICHIGAN, priority 2022, published 2026).

Structures are written as SMILES.

This experiment deals with ER (Homo sapiens (Human), UniProt P03372). Briefly: Western blot analysis (Compounds B1-B278). In kind it is cell-based. The conditions noted are these: ER degradation by traditional Western blot; DC50 classes. The method, boiled down:
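Relative target-protein levels come from densitometry of immunoblots, normalized to GAPDH. Lysates from treated cells were prepared in RIPA buffer (pH 7.6) containing protease inhibitors, and equal protein amounts, checked by BCA, were separated on 10% gels and blotted onto PVDF.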

ER, sequence (P03372 whole entry): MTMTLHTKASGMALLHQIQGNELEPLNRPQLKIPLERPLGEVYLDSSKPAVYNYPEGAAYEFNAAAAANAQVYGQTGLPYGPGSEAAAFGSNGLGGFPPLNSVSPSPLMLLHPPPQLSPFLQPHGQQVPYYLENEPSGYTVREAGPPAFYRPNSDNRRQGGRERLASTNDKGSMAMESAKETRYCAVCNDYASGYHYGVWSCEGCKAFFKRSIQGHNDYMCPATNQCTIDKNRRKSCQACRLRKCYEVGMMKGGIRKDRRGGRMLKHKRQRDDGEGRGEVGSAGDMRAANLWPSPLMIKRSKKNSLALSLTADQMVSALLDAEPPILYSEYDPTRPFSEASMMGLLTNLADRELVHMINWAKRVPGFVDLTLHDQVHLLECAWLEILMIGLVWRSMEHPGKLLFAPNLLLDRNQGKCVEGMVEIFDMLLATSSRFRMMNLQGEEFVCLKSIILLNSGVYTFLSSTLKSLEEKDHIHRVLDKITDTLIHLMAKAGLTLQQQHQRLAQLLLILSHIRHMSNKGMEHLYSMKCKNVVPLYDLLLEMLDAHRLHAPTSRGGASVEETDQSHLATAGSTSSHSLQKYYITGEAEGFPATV

For the compound `COc1cc(C2CCC(C(=O)N3CCC(N4Cc5cc6c(cc5C4)C(=O)N(C4CCC(=O)NC4=O)C6=O)CC3)CC2)cnc1[C@@H]1c2[nH]c3ccccc3c2C[C@@H](C)N1CC(F)F` (stereo partly drawn) [Compound B115, 6-(1-(4-(6-((1S,3R)-2-(2,2-difluoroethyl)-3-methyl-2,3,4,9-tetrahydro-1H-pyrido[3,4-b]indol-1-yl)-5-methoxypyridin-3-yl)cyclohexane-1-carbonyl)piperidin-4-yl)-2-(2,6-dioxopiperidin-3-yl)-6,7-dihydropyrrolo[3,4-f]isoindole-1,3(2H,5H)-dione], the “Traditional Western Degradation Potency” value is recorded as “C (“C”: >100 nM)”. The value for `C[C@@H]1Cc2c([nH]c3ccccc23)[C@@H](c2cnc(N3CC4(CCC(CN5Cc6cc7c(cc6C5)C(=O)N(C5CCC(=O)NC5=O)C7=O)CC4)C3)nc2)N1CC(C)(C)F` (stereo partly drawn) [Compound B184, 2-(2,6-dioxopiperidin-3-yl)-6-((2-(5-((1R,3R)-2-(2-fluoro-2-methylpropyl)-3-methyl-2,3,4,9-tetrahydro-1H-pyrido[3,4-b]indol-1-yl)pyrimidin-2-yl)-2-azaspiro[3.5]nonan-7-yl)methyl) 6,7-dihydropyrrolo[3,4-f]isoindole-1,3(2H,5H)-dione] was “C (“C”: >100 nM)”; that for `C[C@@H]1Cc2c([nH]c3ccccc23)[C@@H](c2cnc(N3CC4(CCC(CN5Cc6cc7c(cc6C5)C(=O)N(C5CCC(=O)NC5=O)C7=O)CC4)C3)nc2)N1CC(F)F` (stereo partly drawn) [Compound B185, 6-((2-(5-((1R,3R)-2-(2,2-difluoroethyl)-3-methyl-2,3,4,9-tetrahydro-1H-pyrido[3,4-b]indol-1-yl)pyrimidin-2-yl)-2-azaspiro[3.5]nonan-7-yl)methyl)-2-(2,6-dioxopiperidin-3-yl)-6,7-dihydropyrrolo[3,4-f]isoindole-1,3(2H,5H)-dione] was “C (“C”: >100 nM)”; that for `C[C@@H]1Cc2c([nH]c3ccccc23)[C@@H](c2cnc(N3CCC4(CC3)CC(CN3Cc5cc6c(cc5C3)C(=O)N(C3CCC(=O)NC3=O)C6=O)C4)nc2)N1CC(C)(C)F` (stereo partly drawn) [Compound B186, 2-(2,6-dioxopiperidin-3-yl)-6-((7-(5-((1R,3R)-2-(2-fluoro-2-methylpropyl)-3-methyl-2,3,4,9-tetrahydro-1H-pyrido[3,4-b]indol-1-yl)pyrimidin-2-yl)-7-azaspiro[3.5]nonan-2-yl)methyl)-6,7-dihydropyrrolo[3,4-f]isoindole-1,3(2H,5H)-dione] was “C (“C”: >100 nM)”. In the case of `C[C@@H]1Cc2c([nH]c3ccccc23)[C@@H](c2cnc(N3CCC4(CC3)CC(CN3Cc5cc6c(cc5C3)C(=O)N(C3CCC(=O)NC3=O)C6=O)C4)nc2)N1CC(F)F` (stereo partly drawn) [Compound B187, 6-((7-(5-((1R,3R)-2-(2,2-difluoroethyl)-3-methyl-2,3,4,9-tetrahydro-1H-pyrido[3,4-b]indol-1-yl)pyrimidin-2-yl)-7-azaspiro[3.5]nonan-2-yl)methyl)-2-(2,6-dioxopiperidin-3-yl)-6,7-dihydropyrrolo[3,4-f]isoindole-1,3(2H,5H)-dione] it was “B (“B”: 10-100 nM)”; in that of `C[C@@H]1Cc2c([nH]c3ccccc23)[C@@H](c2c(F)cc(N3CCC(CN4CCC(C(=O)N5Cc6cc7c(cc6C5)C(=O)N(C5CCC(=O)NC5=O)C7=O)CC4)C3)cc2F)N1CC(F)F` (stereo partly drawn) [Compound B188, 6-(1-((1-(4-((1R,3R)-2-(2,2-difluoroethyl)-3-methyl-2,3,4,9-tetrahydro-1H-pyrido[3,4-b]indol-1-yl)-3,5-difluorophenyl)pyrrolidin-3-yl)methyl)piperidine-4-carbonyl)-2-(2,6-dioxopiperidin-3-yl)-6,7-dihydropyrrolo[3,4-f]isoindole-1,3(2H,5H)-dione], “A (“A”: <10 nM)”.
